Reference: ChEMBL document CHEMBL1148363, “New, non-adenosine, high-potency agonists for the human adenosine A2B receptor with an improved selectivity profile compared to the reference agonist N-ethylcarboxamidoadenosine” (J Med Chem, 2004)

Columns and labels:
[1] = target: T1, Adenosine receptor A2b (Homo sapiens) (UniProt P29275); test: Stimulation of human adenosine A2B receptor in production of cAMP in CHO cells; type: functional, cell-based
T1 sequence (whole entry): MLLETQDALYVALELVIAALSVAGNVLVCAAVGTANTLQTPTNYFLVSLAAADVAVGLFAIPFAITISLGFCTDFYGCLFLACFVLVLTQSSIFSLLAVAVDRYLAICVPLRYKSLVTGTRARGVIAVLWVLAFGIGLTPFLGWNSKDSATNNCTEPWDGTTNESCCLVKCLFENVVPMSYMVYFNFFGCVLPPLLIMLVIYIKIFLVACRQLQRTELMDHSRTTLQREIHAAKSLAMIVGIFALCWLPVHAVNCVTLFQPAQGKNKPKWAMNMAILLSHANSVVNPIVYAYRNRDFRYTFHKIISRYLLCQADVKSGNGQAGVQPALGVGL

Adenosine receptor A1 = target: T2, Adenosine receptor A1 (Homo sapiens, UniProt P30542); test: Binding affinity against human adenosine A1 receptor expressed in CHO cells using [3H]DPCPX; type: cell-based
T2 sequence (P30542 whole entry): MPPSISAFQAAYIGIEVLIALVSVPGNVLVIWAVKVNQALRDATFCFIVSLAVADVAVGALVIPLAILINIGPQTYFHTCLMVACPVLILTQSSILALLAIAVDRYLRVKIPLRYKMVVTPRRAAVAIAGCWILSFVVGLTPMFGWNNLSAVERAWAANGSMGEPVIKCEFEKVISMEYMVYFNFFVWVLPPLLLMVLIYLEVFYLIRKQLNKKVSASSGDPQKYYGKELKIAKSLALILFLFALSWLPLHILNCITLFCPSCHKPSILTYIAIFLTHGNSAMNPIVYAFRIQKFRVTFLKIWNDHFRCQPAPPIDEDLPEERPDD

Adenosine receptor A3 = target: T3, Adenosine receptor A3 (Homo sapiens, UniProt P0DMS8); test: Binding affinity against human adenosine A3 receptor expressed on HEK293 cells using [125I]I-AB-MECA; type: cell-based
T3 sequence (P0DMS8 whole entry): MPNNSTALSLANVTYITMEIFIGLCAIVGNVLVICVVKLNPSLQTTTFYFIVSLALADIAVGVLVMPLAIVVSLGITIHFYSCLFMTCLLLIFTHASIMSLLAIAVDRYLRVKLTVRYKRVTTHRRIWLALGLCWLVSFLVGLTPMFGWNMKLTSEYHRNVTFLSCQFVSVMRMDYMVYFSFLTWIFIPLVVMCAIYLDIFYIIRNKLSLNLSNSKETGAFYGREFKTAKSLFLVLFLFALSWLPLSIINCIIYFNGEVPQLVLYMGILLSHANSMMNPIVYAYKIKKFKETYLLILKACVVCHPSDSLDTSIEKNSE

[2] = target: T4, Adenosine receptor A3 (Homo sapiens) (UniProt P0DMS8); test: Inhibition of human adenosine A3 receptor in production of cAMP in CHO cells; type: functional, cell-based
T4 sequence (whole entry): T3 sequence (P0DMS8 whole entry)

[3] = target: T5, Adenosine receptor A1 (Homo sapiens) (UniProt P30542); test: Inhibition of human adenosine A1 receptor in production of cAMP in CHO cells; type: functional, cell-based
T5 sequence (whole entry): T2 sequence (P30542 whole entry)

Adenosine receptor A2b = target: T6, Adenosine receptor A2b (Homo sapiens, UniProt P29275)
T6 sequence (P29275 whole entry): T1 sequence (whole entry)
Description: Agonistic activity against human adenosine A2B receptor expressed in CHO cells

Adenosine receptor A2a = Adenosine receptor A2a (Homo sapiens, UniProt P29274); test: biochemical
Description: Binding affinity against human adenosine A2A receptor expressed in HEK293 cells using [3H]ZM-241385

CHO = test: cells; settings: Cricetulus griseus, read-out: pA2 (converted)

Adenosine receptor A2a, sequence (P29274 whole entry): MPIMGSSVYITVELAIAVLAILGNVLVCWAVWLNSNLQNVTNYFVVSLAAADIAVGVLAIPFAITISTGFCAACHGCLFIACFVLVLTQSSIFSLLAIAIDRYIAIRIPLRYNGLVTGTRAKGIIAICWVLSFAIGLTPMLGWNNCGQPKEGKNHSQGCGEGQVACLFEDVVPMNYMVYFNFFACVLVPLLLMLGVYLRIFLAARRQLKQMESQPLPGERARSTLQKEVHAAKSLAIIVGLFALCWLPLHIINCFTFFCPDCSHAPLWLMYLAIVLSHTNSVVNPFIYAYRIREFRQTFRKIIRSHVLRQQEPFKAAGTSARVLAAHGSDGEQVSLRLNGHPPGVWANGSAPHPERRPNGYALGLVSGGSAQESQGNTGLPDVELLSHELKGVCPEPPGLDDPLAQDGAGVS

Row | Compound | Efficacy [1] | Ki (Adenosine receptor A1) | Ki (Adenosine receptor A3) | Efficacy [2] | Efficacy [3] | EC50 (Adenosine receptor A2b) | Ki (Adenosine receptor A2a) | Kb (CHO)
1 | N#Cc1c(N)nc(SCc2ncc[nH]2)c(C#N)c1-c1cccc(O)c1 | 92% | 0.0044 µM | 0.104 µM | 95% | 112% | 0.01 µM | 0.021 µM | –
2 | N#Cc1c(N)nc(SCc2ncc[nH]2)c(C#N)c1-c1ccc(O)cc1 | 74% | 0.0026 µM | 0.538 µM | 23% | 103% | 0.012 µM | 0.028 µM | –
3 | N#Cc1c(N)nc(SCc2ncc[nH]2)c(C#N)c1-c1ccccc1 | 81% | – | – | 84% | 109% | – | – | –
4 | Nc1nc2ccc(Cl)cc2c2nc(-c3ccco3)nn12 [CGS-15943] | – | – | – | – | – | – | – | 0.00501 µM
5 | COc1cccc(-c2c(C#N)c(N)nc(SCc3ncc[nH]3)c2C#N)c1 | 68% | 0.002 µM | 0.074 µM | 39% | 80% | 0.034 µM | 0.105 µM | –
6 | COc1ccc(-c2c(C#N)c(N)nc(SCc3ncc[nH]3)c2C#N)cc1 | 33% | 0.007 µM | – | 73% | 46% | 0.009 µM | 0.214 µM | –
